Legend:
[1] = test system: MM3MG-ESR1mut (Y537N, Y537S, D538G); assay: Response of MM3MG-ESR1mut cells to standard endocrine therapies; assay type: cell-based, mouse; details: data not shown
Protocol: Using DNA deep-sequencing technology, recent studies have identified several conserved mutations to the […] of ESR1 in a significant proportion (˜30-40%) of endocrine-resistant metastatic ER+ breast cancer patients. As no established models of endocrine-resistant ER+ breast cancer existed in immunocompetent mice, an ER+ endocrine resistant breast cancer cell line model was generated that would grow in immune competent syngeneic animals. MM3MG cells were artificially transformed with wild-type or mutated human ESR1 (Y537N, Y537S, D538G).
Therefore, the established murine breast cancer cell lines, MM3MG-ESR1mut (Y537N, Y537S, D538G), simulate patients' metastatic ER+ breast cancers, that are endocrine-resistant, having ESR1 gene mutation, and behave more aggressively.

4T1 tumors = details: combined with thermal ablative focused ultrasound; CD8 and CD4 T cell-dependent; cited from earlier work
[2] = test system: pre-treated locally advanced or recurrent TNBC; assay: Single arm, prospective clinical trial of intratumoral pIL-12 (TAVO) monotherapy (OMS-140); assay type: in vivo, human; details: one patient previously unresponsive to anti-PD1; after 1 cycle of IL-12 treatment and 3 months of therapy
Protocol: The clinical safety of the therapy was tested in a single arm, prospective clinical trial of intratumoral pIL-12 (TAVO) monotherapy (OMS-140) in pre-treated locally advanced or recurrent TNBC.

CC/C(=C(\c1ccccc1)c1ccc(OCCN(C)C)cc1)c1ccccc1 [Tamoxifen]
sensitivity of the cells to standard endocrine therapies [1]: completely resistant

Nc1ccn([C@@H]2O[C@H](CO)[C@@H](O)C2(F)F)c(=O)n1 [gemcitabine]
tumor control and survival of mice (4T1 tumors): enhanced tumor control and improved survival

nivolumab
clinical response of lung metastases [2]: profound clinical response

— patent US20250205467A1, “SYSTEMS AND METHODS FOR THE TREATMENT OF CANCER USING ULTRASOUND” (Duke University, priority 2022, published 2025)
